Test results: PubChem BioAssay (NCI)
Values joined by “and” are separate entries in the source; they are usually repeats but may differ in a detail not shown here. Equal values may be shown once.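 Interpolation was linear, between the two tested concentrations surrounding the appropriate level; five concentrations were tested over 48 hours in 96-well plates. At the GI50, growth is halved. TGI: concentration producing complete growth inhibition.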

Legend:
Assay in all cases: DTP human tumour cell line panel, 48 h
[1] = tested on: UO-31 renal
[2] = tested on: CAKI-1 renal
[3] = tested on: HCC-2998 colon
[4] = tested on: IGROV1 ovarian
[5] = tested on: U251 CNS
[6] = tested on: RXF 393 renal
[7] = tested on: HCT-15 colon
[8] = tested on: SN12C renal
[9] = tested on: NCI-H226 lung
[10] = tested on: M14 melanoma

| Structure (SMILES) | GI50 [1] | TGI [1] | GI50 [2] | TGI [2] | GI50 [3] | TGI [3] | GI50 [4] | TGI [4] | GI50 [5] | TGI [5] | GI50 [6] | TGI [6] | GI50 [7] | TGI [7] | GI50 [8] | TGI [8] | GI50 [9] | TGI [9] | GI50 [10] | TGI [10] |
| --- | --- | --- | --- | --- | --- | --- | --- | --- | --- | --- | --- | --- | --- | --- | --- | --- | --- | --- | --- | --- |
| COc1ccc2[nH]cc(C3(c4c[nH]c5ccc(OC)cc45)C(=O)Nc4ccc(Cl)cc43)c2c1 | 2.27 µM | > 100 µM | 2.25 µM | > 100 µM | 3.26 µM | 11.4 µM | 3.28 µM | 21.2 µM | 2.88 µM | 13.4 µM | 3.4 µM | 13.6 µM | 7.09 µM | > 100 µM | 4.34 µM | 18.6 µM | 3.38 µM | 30 µM | 4.06 µM | > 100 µM |
| O=C(CS(=O)c1nc2ccccc2nc1-c1ccccc1)Nc1ccc(Cl)cc1 (stereo not drawn) | 25 µM | > 100 µM | 20.1 µM | 57.5 µM | 28.6 µM | 84.9 µM | 31.2 µM | 99.5 µM | 21.8 µM | 61.6 µM | 30.4 µM | 84.3 µM | 21.2 µM | 59.4 µM | 18.2 µM | 33.7 µM | 23.1 µM | 47.8 µM | 28.4 µM | > 100 µM |
| CC(=O)OCC1OC([S-])C(OC(C)=O)C(OC(C)=O)C1OC(C)=O.[Au+].c1ccc(CN2[CH-]N(Cc3ccccc3)C(c3ccccc3)=C2c2ccccc2)cc1 | 1.83 µM and 0.445 µM | 4.31 µM and 1.99 µM | 0.866 µM | 3.37 µM | 1.64 µM and 0.625 µM | 3.34 µM and 1.9 µM | 1.83 µM and 0.514 µM | 3.91 µM and 1.44 µM | 1.74 µM and 0.251 µM | 3.2 µM and 0.942 µM | 1.71 µM and 0.527 µM | 3.19 µM and 1.26 µM | 1.8 µM and 0.906 µM | 3.68 µM and 2 µM | – | 5.08 µM and 1.18 µM | 3.5 µM and 0.655 µM | 14.3 µM and 5.74 µM | 2.27 µM and 0.798 µM | 5.66 µM and 3 µM |
| C=C1C(=O)O[C@H]2[C@H]1CC/C(CNC(=O)C(C)c1ccc(CC(C)C)cc1)=C\CC[C@@]1(C)O[C@@H]21 (stereo partly drawn) | 1.33 µM | 2.6 µM | 1.69 µM | 3.06 µM | 1.83 µM | 3.38 µM | 1.59 µM | 3.43 µM | 1.67 µM | 3.1 µM | 1.31 µM | 2.61 µM | 1.47 µM | 3.25 µM | 1.63 µM | 3.26 µM | 1.66 µM | 3.27 µM | 1.85 µM | 3.98 µM |
| COc1cc2c(cc1OC)-c1c(c3ccc([N+](=O)[O-])cc3c(=O)n1CCCN=[N+]=[N-])C2=O | 42.4 µM | > 100 µM | 26.3 µM | 70.7 µM | 83.9 µM | > 100 µM | 7.5 µM | > 100 µM | 11.6 µM | > 100 µM | > 100 µM | > 100 µM | > 100 µM | > 100 µM | 46.7 µM | > 100 µM | > 100 µM | > 100 µM | 20.3 µM | 67.3 µM |
| CCN(CC)CCCNc1nccc2c(C)c3[nH]c4ccncc4c(=O)c3cc12 | – | 43.4 µM | – | 16.8 µM | – | 13.4 µM | – | 21.7 µM | – | 11.8 µM | – | 3.18 µM | – | > 100 µM | – | 8.9 µM | – | 10.2 µM | – | 9.64 µM |
| CCCCCCCCC1C(C)c2c([nH]c3ccccc23)C2C(=O)N(c3ccccc3)C(=O)C21 (stereo not drawn) | – | 28.5 µM | – | 27.5 µM | – | 25.6 µM | – | 36.2 µM | – | 22.9 µM | – | 6.84 µM | – | 25.6 µM | – | 23.8 µM | – | 25.9 µM | – | 28 µM |
| CC[C@H](C)[C@H](NC(=O)[C@H]1CCCCN1C)C(=O)N(C)[C@H](C[C@@H](OC(C)=O)c1nc(C(=O)NC23C4C5C2C2C3C4C52C(=O)OC)cs1)C(C)C (stereo partly drawn) | 0.0358 µM and 0.0114 µM | > 25 µM | 0.016 µM | – | 0.00336 µM and 0.0025 µM | 14.3 µM | 0.00242 µM and 0.0025 µM | 20.1 µM | 0.00424 µM and 0.0025 µM | > 25 µM | 0.000768 µM | 0.00906 µM | 0.00763 µM and 0.00302 µM | > 25 µM | 0.00199 µM and 0.0025 µM | 9.33 µM | 0.0256 µM and 0.0222 µM | 1.15 µM | 0.00713 µM and < 0.0025 µM | < 0.0025 µM |
| CSC(=NC(=O)c1ccccc1)SCCSC(=NC(=O)c1ccccc1)SC | – | > 100 µM | – | > 100 µM | – | > 100 µM | – | > 100 µM | – | > 100 µM | – | > 100 µM | – | > 100 µM | – | > 100 µM | – | > 100 µM | – | > 100 µM |
| C#Cc1cccc(Nc2ncnc3ccc(-c4cnc(N)nc4)cc23)c1 | 0.515 µM | 7.75 µM | 1.09 µM | 4.93 µM | 5.14 µM | 23.4 µM | 0.183 µM | 2.26 µM | 3.18 µM | 16.9 µM | 0.693 µM | 3.44 µM | 2.55 µM | 13.2 µM | 1.81 µM | 12.7 µM | 1.98 µM | 12.8 µM | 3.73 µM | 15.7 µM |
| CC(=O)OC(C)(C)C[N+](=O)[O-] | – | > 100 µM | – | > 100 µM | – | > 100 µM | – | > 100 µM | – | > 100 µM | – | > 100 µM | – | > 100 µM | – | > 100 µM | – | > 100 µM | – | > 100 µM |
| CCCCCCCCCCCCSC1=CC(=O)C=CC1=O | 0.578 µM | 2.54 µM | 3.26 µM | 24.2 µM | 15.2 µM | > 50 µM | 1.06 µM | 3.22 µM | 0.311 µM | 4.57 µM | 2.86 µM | 19.3 µM | 1.92 µM | > 32.4 µM | 3.24 µM | 24.7 µM | 6.58 µM | 19 µM | 11.7 µM | > 37.1 µM |
| O=C(C(=O)c1cccnc1)c1cccnc1 | > 100 µM | > 100 µM | > 100 µM | > 100 µM | > 100 µM | > 100 µM | > 100 µM | > 100 µM | > 100 µM | > 100 µM | > 100 µM | > 100 µM | > 100 µM | > 100 µM | > 100 µM | > 100 µM | > 100 µM | > 100 µM | > 100 µM | > 100 µM |
| O=c1[nH][nH]c(=O)c2c(O)c(-c3ccccc3)ncc12 | 37.4 µM and 129 µM | 622 µM | 83.8 µM and 145 µM | 748 µM | 34.9 µM and 103 µM | 642 µM | 247 µM | 835 µM | 31.4 µM and 48.8 µM | 79.8 µM and 405 µM | 27.8 µM and 44.9 µM | 62 µM and 187 µM | 57.5 µM and 185 µM | > 1000 µM | 62.6 µM and 160 µM | 623 µM | 25.2 µM and 135 µM | 52.6 µM and 463 µM | 32.8 µM and 63.3 µM | 385 µM |
